Assay results from PMC6136712, “Ex vivo drug sensitivity testing as a means for drug repurposing in esophageal adenocarcinoma” (PLoS ONE, 2018).
Where a name gives a salt, the structure may show the parent alone. Read-outs that look alike come from different tables or passages of the source.

Legend:
Format in all cases: cell-based, human
[1] = tested on: normal esophageal epithelium cell line EACN42; assay: FDA library drug sensitivity testing (CellTiter-Glo, 72 h), normal control cells; set-up: key to DSS: modified drug sensitivity score (DSSmod) from dose-response curve fit
Summary of the method: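 HPV E6-E7-immortalized normal human esophageal epithelial cells, 1000 per well, exposed 72 h at 37 °C to drugs in duplicate from 10μM top concentration across a 20,000-fold range. Viability by ATP bioluminescence; DMSO wells as negative control; curves scored with modified drug sensitivity score (DSSmod).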

OE33 cells = assay: FDA library drug sensitivity testing (CellTiter-Glo, 72 h)
Source text: (§1) OE33, OE19 and SKGT2 human esophageal adenocarcinoma cell lines were obtained from the European Collection of Cell Culture ([…]). Flo1, EAC42 and EAC47 cells were established in the Capobianco Laboratory. EAC42 and EAC47 human esophageal adenocarcinoma cell lines are derived from patients undergoing surgery at the Miller School of Medicine, University of Miami. The Capobianco laboratory obtained written informed consent from all patients and approval from the Institutional Research Ethics Committee.
(§2) Drug sensitivity testing (DST) was performed as described previously. […] Individual drugs were dissolved in 100% DMSO and tested in duplicates starting at a maximal test concentration of 10μM then over a 20,000-fold concentration range to generate dose response curves. Wells with assay buffer containing DMSO served as negative controls. 1000 exponentially growing cells were seeded per well in 384-well micro-titer plates and incubated in the presence of compounds in a humidified environment at 37°C and 5% CO2. After 72 hours of treatment, cell viability was assessed by measuring ATP levels via bioluminescence (CellTiter-Glo, Promega) according to manufactures recommendations. Interpretation of curve parameters was performed according to the modified drug sensitivity scoring (DSSmod) function developed by Swords et al. […] Given in this way, the sDSSmod incorporated information on each drug’s potency, efficacy, effect range and therapeutic index, making it possible to prioritize compounds over multiple parameters using a single numerical metric. […] All calculations and scoring routines are implemented in MatLab and additional curve fitting and statistical analyses are performed in GraphPad prism.

EAC47 cells = assay: as above
Source text: as §1, §2

OE19 cells = assay: as above; conditions: sDSSmod = DSSmod (patient cells) - DSSmod (normal cells)
Source text: as §1, §2

EAC42 cells = assay: as above
Source text: as §1, §2

Flo-1 cells = assay: as above
Source text: as §1
Drug sensitivity testing (DST) was performed as described previously. […] Individual drugs were dissolved in 100% DMSO and tested in duplicates starting at a maximal test concentration of 10μM then over a 20,000-fold concentration range to generate dose response curves. Wells with assay buffer containing DMSO served as negative controls. 1000 exponentially growing cells were seeded per well in 384-well micro-titer plates and incubated in the presence of compounds in a humidified environment at 37°C and 5% CO2. After 72 hours of treatment, cell viability was assessed by measuring ATP levels via bioluminescence (CellTiter-Glo, Promega) according to manufactures recommendations. Interpretation of curve parameters was performed according to the modified drug sensitivity scoring (DSSmod) function developed by Swords et al. As a final step, the selective DSSmod (sDSSmod) for each drug in each patient screen is calculated according to the formula sDSSmod = DSSmod (patient cells)—DSSmod (normal cells). Given in this way, the sDSSmod incorporated information on each drug’s potency, efficacy, effect range and therapeutic index, making it possible to prioritize compounds over multiple parameters using a single numerical metric. In addition, this methodology allows us to rank compounds by cancer-selective efficacy for each individual patient. […] All calculations and scoring routines are implemented in MatLab and additional curve fitting and statistical analyses are performed in GraphPad prism.

SK-GT2 cells = assay: as above
Source text: as §1, §2

[2] = drug sensitivity score, EACN42 normal esophageal cells, 72 h
[3] = OE33, sDSSmod = DSSmod (patient cells) - DSSmod (normal cells)
[4] = EAC47, sDSSmod = DSSmod (patient cells) - DSSmod (normal cells)
[5] = EAC42, sDSSmod = DSSmod (patient cells) - DSSmod (normal cells)
[6] = Flo-1, sDSSmod = DSSmod (patient cells) - DSSmod (normal cells)
[7] = Homo sapiens, 72 h, EACN42 normal esophageal cells, cell viability (ATP), max test concentration 10μM
[8] = SK-GT2, sDSSmod = DSSmod (patient cells) - DSSmod (normal cells)

| Compound | DSS [1, 2] | sDSSmod (OE33 cells; [3]) | sDSSmod (EAC47 cells; [4]) | sDSSmod (OE19 cells) | sDSSmod (EAC42 cells; [5]) | sDSSmod (Flo-1 cells; [6]) | EC50 ([1]; EACN42 normal esophageal cells, 72 h, cell viability (ATP), max test concentration 10μM) [µM] | sDSSmod (OE33 cells) | sDSSmod (EAC47 cells) | sDSSmod (SK-GT2 cells) | sDSSmod (EAC42 cells) | sDSSmod (Flo-1 cells) | EC50 [1, 7] [µM] | sDSSmod (SK-GT2 cells; [8]) | EC50 ([1]; Homo sapiens; EACN42 normal esophageal cells, 72 h, cell viability (ATP), max test concentration 10μM) [µM] |
| --- | --- | --- | --- | --- | --- | --- | --- | --- | --- | --- | --- | --- | --- | --- | --- |
| O=C(CCCCCCC(=O)Nc1ccccc1)NO [Vorinostat] | 5.09 | 15.71 | 5.288 | 9.843 | 7.485 | 9.58 | – | – | – | – | – | – | – | – | – |
| Bleomycin sulfate | 30.58 | – | – | -18.9933 | – | – | 0.37 | -15.1946 | -29.4923 | -29.9671 | -29.1318 | -18.12 | – | – | – |
| Cc1nc(Nc2ncc(C(=O)Nc3c(C)cccc3Cl)s2)cc(N2CCN(CCO)CC2)n1 [Dasatinib] | 12.81 | -12.8072 | -10.2728 | -12.8072 | -9.752 | -12.8 | – | – | – | – | – | – | 0.08 | -12.8072 | – |
| Nc1nc(F)nc2c1ncn2[C@@H]1O[C@H](COP(=O)(O)O)[C@@H](O)[C@@H]1O [Fludara] | 46.34 | -12.9868 | -46.3431 | -23.9486 | -46.3431 | -5.23 | – | – | – | – | – | – | 0.05 | -12.9068 | – |
| COc1cccc2c1C(=O)c1c(O)c3c(c(O)c1C2=O)C[C@@](O)(C(=O)CO)C[C@@H]3O[C@H]1C[C@H](N)[C@H](O)[C@H](C)O1 [Doxorubicin] | 15.67 | – | – | -12.9053 | – | 7.66 | – | – | – | – | – | – | 1.42 | -8.365 | – |
| [Na+].[Na+].[Na+].[O]=[V]([O-])([O-])[O-] [Sodium orthovanadate] | 0 | – | – | 5.913 | – | 13.33 | – | – | – | – | – | – | – | 23.66 | – |
| Cc1[nH]c2ccccc2c1CCNCc1ccc(/C=C/C(=O)NO)cc1 [Panobinostat] | 40.42 | -40.4215 | – | -40.4215 | 7.607 | -40.42 | – | – | – | – | – | – | 0.09 | -40.4215 | – |
| Cc1cn(-c2cc(NC(=O)c3ccc(C)c(Nc4nccc(-c5cccnc5)n4)c3)cc(C(F)(F)F)c2)cn1 [Nilotinib] | 0.43 | 32.09 | – | 18.74 | – | 37.8 | – | – | – | – | – | – | > 10 | 27.22 | – |
| CO[C@H]1C[C@@H]2CC[C@@H](C)[C@@](O)(O2)C(=O)C(=O)N2CCCC[C@H]2C(=O)O[C@H]([C@H](C)C[C@@H]2CC[C@@H](O)[C@H](OC)C2)CC(=O)[C@H](C)/C=C(\C)[C@@H](O)[C@@H](OC)C(=O)[C@H](C)C[C@H](C)/C=C/C=C/C=C/1C [Rapamycin] | 11.01 | -11.012 | -8.931 | -11.012 | -6.15 | -10.72 | – | – | – | – | – | – | 3 | -11.012 | – |
| CC(C)C[C@H](NC(=O)[C@H](CCc1ccccc1)NC(=O)CN1CCOCC1)C(=O)N[C@@H](Cc1ccccc1)C(=O)N[C@@H](CC(C)C)C(=O)[C@@]1(C)CO1 [Cartilzomib, Carfilzomib] | 44.43 | -43.92 | – | -42.8127 | – | -44.35 | – | – | – | – | – | – | 0.08 | -44.432 | – |
| CC[C@@]1(O)C(=O)OCc2c1cc1n(c2=O)Cc2cc3c(CN(C)C)c(O)ccc3nc2-1 [Topotecan HCl] | 43.21 | – | -11.6273 | -36.6414 | -9.367 | -20.26 | – | – | – | – | – | – | 0.06 | -13.0332 | – |
| O=C(/C=C/c1cccc(S(=O)(=O)Nc2ccccc2)c1)NO [Belinostat] | 19 | -19.002 | 6.846 | -19.002 | 10.9 | -19 | – | – | – | – | – | – | 1.08 | -19.002 | – |
| COc1cccc2c1C(=O)c1c(O)c3c(c(O)c1C2=O)C[C@@](O)(C(C)=O)C[C@@H]3O[C@H]1C[C@H](N)[C@H](O)[C@H](C)O1 [Daunorubicin HCl] | 21.12 | – | – | -13.6679 | – | 5.15 | – | – | – | – | – | – | – | – | 0.98 |
| CC[C@@]1(O)C(=O)OCc2c1cc1n(c2=O)Cc2cc3ccccc3nc2-1 [Camptothecin] | 52.69 | – | -15.9763 | -34.9341 | -13.5945 | -20.76 | – | – | – | – | – | – | 0.02 | -11.3049 | – |
| CC(C)C[C@H](NC(=O)[C@H](Cc1ccccc1)NC(=O)c1cnccn1)B(O)O [Bortezomib] | 35.58 | -35.5757 | -23.5292 | -35.5757 | -21.0264 | -35.57 | – | – | – | – | – | – | 0.2 | -35.5649 | – |
| CC(C)n1c(/C=C/C(O)CC(O)CC(=O)O)c(-c2ccc(F)cc2)c2ccccc21 (stereo not drawn) [Fluvastatin sodium] | 17.36 | -10.5948 | -15.1417 | -16.7184 | -14.3727 | -9.71 | – | – | – | – | – | – | 1.06 | -17.1525 | – |
